Measured values as given in US10724072B2, “Use of phospho-Akt as a biomarker of drug response” (Basilea Pharmaceutica AG, priority 2011, dated 2020).

Experiments:
Assay type in all cases: cell-based, human
CXF 1103 = assay: Colony outgrowth assay, patient-derived colorectal cancer xenograft cells; parameters: key to Response to BAL27862: BAL27862-sensitive tumour cells were those that had IC70 values in the low nanomolar range; BAL27862-resistant tumour cells had IC70 values >600 nanomolar; details: CXF 1103, ex vivo colony outgrowth
Procedure: (§1) Single cell suspensions of patient-derived tumour xenografts (maintained in nude mice) were prepared. For colony outgrowth assays, cells were plated in soft agar in 24-well plates according to the assay introduced by Hamburger & Salmon (Primary bioassay of human tumour stem cells, Science, 1977, 197:461-463). 2×10^4-6×10^4 cells in 0.2 mL medium containing 0.4% agar were plated out on a bottom layer of 0.75% agar. Test compounds were applied in 0.2 mL culture medium. Every 24-well plate contained untreated controls and samples in triplicates. Cultures were incubated at 37° C. and 7.5% CO2 for 5-28 days. 24 hours prior to analysis, vital colonies were stained with a solution of metabolizable tetrazolium salt (Alley M C et al, Life Sci. 1982, 31:3071-3078) and were counted with an automatic image analysis system (Omnicon 3600, Biosys GmbH).
(§2) Relative drug effects were expressed by the ratio of the mean number of colonies in the treated wells and the control wells. IC70-values were determined by plotting compound concentrations versus relative colony counts.
(§3) Based on colony outgrowth assays, using tumour cells derived from 8 patient-derived tumours maintained as xenografts in mice, BAL27862-sensitive or resistant tumour cells were identified from gastric cancer, colorectal cancer, melanoma, and lung cancer (see Table 1). In this table, BAL27862-sensitive tumour cells were those that had IC70 values in the low nanomolar range, while BAL27862-resistant tumour cells had IC70 values >600 nanomolar. Paclitaxel and vinblastine data, using the same ex vivo assay, was available for 7 of the 8 tumour models. Of these 7 models, all were resistant to treatment with paclitaxel, while 6 were sensitive to treatment with vinblastine.

LXFE 397 = assay: Colony outgrowth assay, patient-derived lung tumour xenograft cells; details: LXFE 397, ex vivo colony outgrowth
Procedure: as §1, §2
Based on colony outgrowth assays, using tumour cells derived from 8 patient-derived tumours maintained as xenografts in mice, BAL27862-sensitive or resistant tumour cells were identified from gastric cancer, colorectal cancer, melanoma, and lung cancer (see Table 1). […]

MEXF 1341 = assay: Colony outgrowth assay, patient-derived melanoma xenograft cells; parameters: key to Response to BAL27862 / Response to vinblastine: BAL27862-sensitive tumour cells were those that had IC70 values in the low nanomolar range; BAL27862-resistant tumour cells had IC70 values >600 nanomolar; details: MEXF 1341, ex vivo colony outgrowth
Procedure: as §1, §2, §3

CXF 243 = assay: Colony outgrowth assay, patient-derived colorectal cancer xenograft cells; parameters: key to Response to vinblastine: BAL27862-sensitive tumour cells were those that had IC70 values in the low nanomolar range; BAL27862-resistant tumour cells had IC70 values >600 nanomolar; details: CXF 243, ex vivo colony outgrowth
Procedure: as §1, §2, §3

A549 NSCLC cells = assay: Immunofluorescent staining of microtubules (anti-alpha-tubulin) in cultured cells; details: for Microtubule phenotype of mitotic or G2/M arrested cells: 24 hours treatment; for Effect on microtubule phenotype induced by BAL27862: 24 hours BAL27862 with the final 4 hours including the agent
Procedure: (§4) A549 human non-small cell lung cancer (NSCLC, ATCC reference number CCL-185) cells, HeLa cervical cancer cells (ATCC reference number CCL-2) and SKBR3 breast carcinoma cells (ATCC reference number HTB-30) were seeded at densities of 50% on round microscope coverslips and cultured for 24 hours in RPMI-1640 containing 10% FCS (also referred to as FBS) at 37° C., 5% CO2. Compounds to be tested were dissolved in DMSO. The cell culture medium was replaced with medium containing the diluted compound(s) (paclitaxel, vinblastine, colchicine and nocodazole were purchased from Sigma-Aldrich) or vehicle. After treatment for the times indicated in the Brief Description of the Figures, coverslips were washed and cells were fixed in methanol/acetone (1:1) for 5 minutes at room temperature and subsequently incubated in blocking buffer (0.5% BSA and 0.1% TX-100 in PBS) for 30 minutes at room temperature. Specimens were then incubated with anti-alpha-tubulin antibody (Sigma, 1:2000) for 1 hour at room temperature in blocking buffer. After several washing steps cells were incubated with AlexaFluor-488 goat-anti-mouse IgG (Molecular Probes, 1:3000) for 1 hour at room temperature followed by several washing steps with blocking buffer. Specimens were then mounted with ProLong Gold antifade (Molecular Probes), sealed with nail polish and examined with a Leica immunofluorescence microscope. Images were captured with a cooled CCD-camera and processed by ImageJ software.

[1] = test system: HeLa cervical cancer cells; assay: as above; details: 50 nM, 24 hours treatment
Procedure: as §4

[2] = test system: SKBR3 breast cancer cells; assay: as above; details: SKBR3, 50 nM, 24 hours treatment
Procedure: as §4

MEXF 276 = assay: Colony outgrowth assay, patient-derived melanoma xenograft cells; parameters: key to Response to vinblastine: BAL27862-sensitive tumour cells were those that had IC70 values in the low nanomolar range; BAL27862-resistant tumour cells had IC70 values >600 nanomolar; details: MEXF 276, ex vivo colony outgrowth
Procedure: as §1, §2, §3

GFX 251 = assay: Colony outgrowth assay, patient-derived gastric tumour xenograft cells; parameters: key to Response to vinblastine / Response to BAL27862: BAL27862-sensitive tumour cells were those that had IC70 values in the low nanomolar range; BAL27862-resistant tumour cells had IC70 values >600 nanomolar; details: GFX 251, ex vivo colony outgrowth
Procedure: as §1, §2, §3

GFX 97 = assay: as above; parameters: key to Response to vinblastine: BAL27862-sensitive tumour cells were those that had IC70 values in the low nanomolar range; BAL27862-resistant tumour cells had IC70 values >600 nanomolar; details: GFX 97, ex vivo colony outgrowth
Procedure: as §1, §2, §3

LXFE 211 = assay: Colony outgrowth assay, patient-derived lung tumour xenograft cells; parameters: key to Response to BAL27862 / Response to vinblastine: BAL27862-sensitive tumour cells were those that had IC70 values in the low nanomolar range; BAL27862-resistant tumour cells had IC70 values >600 nanomolar; details: LXFE 211, ex vivo colony outgrowth
Procedure: as §1, §2, §3

N#CCCNc1nonc1-c1nc2ccccc2n1CC(=O)c1ccc(N)cc1 [BAL27862, 3-(4-{1-[2-(4-Amino-phenyl)-2-oxo-ethyl]-1H-benzoimidazol-2-yl}-furazan-3-ylamino)-propionitrile]
IC70 BAL27862 (CXF 1103): 22 nM
Response to BAL27862 (CXF 1103): sensitive
IC70 BAL27862 (LXFE 397): >3500 nM
Response to BAL27862 (LXFE 397): resistant (BAL27862-resistant tumour cells had IC70 values >600 nanomolar)
IC70 BAL27862 (MEXF 1341): 25 nM
Response to BAL27862 (MEXF 1341): sensitive
IC70 BAL27862 (CXF 243): 696 nM
Response to BAL27862 (CXF 243): resistant (BAL27862-resistant tumour cells had IC70 values >600 nanomolar)
Microtubule phenotype of mitotic or G2/M arrested cells (A549 NSCLC cells; A549, 50 nM): dot-like structures
Effect on microtubule phenotype induced by conventional microtubule targeting agents (A549 NSCLC cells; A549, 24 hours vinblastine, colchicine, paclitaxel or nocodazole with the final 4 hours including BAL27862): disruption of the microtubule structures
Microtubule phenotype of mitotic or G2/M arrested cells [1]: dot-like structures
Microtubule phenotype of mitotic or G2/M arrested cells [2]: dot-like structures
IC70 BAL27862 (MEXF 276): >3500 nM
Response to BAL27862 (MEXF 276): resistant (BAL27862-resistant tumour cells had IC70 values >600 nanomolar)
IC70 BAL27862 (GFX 251): 485 nM
Response to BAL27862 (GFX 251): sensitive
IC70 BAL27862 (GFX 97): >3500 nM
Response to BAL27862 (GFX 97): resistant (BAL27862-resistant tumour cells had IC70 values >600 nanomolar)
IC70 BAL27862 (LXFE 211): 21 nM
Response to BAL27862 (LXFE 211): sensitive

Nc1ccc(C(=O)Cn2c(-c3nonc3N)nc3ccccc32)cc1 [Compound B, 2-[2-(4-Amino-furazan-3-yl)-benzoimidazol-1-yl]-1-(4-amino-phenyl)-ethanone]
Microtubule phenotype of mitotic or G2/M arrested cells (A549 NSCLC cells; A549, 80 nM): dot-like structures

N#CCCNc1nonc1-c1nc2ccccc2n1CC(=O)c1ccc(N)nc1 [Compound C, 3-(4-{1-[2-(6-Amino-pyridin-3-yl)-2-oxo-ethyl]-1H-benzoimidazol-2-yl}-furazan-3-ylamino)-propionitrile]
Microtubule phenotype of mitotic or G2/M arrested cells (A549 NSCLC cells; A549, 20 nM): dot-like structures

COc1cc2c(c(OC)c1OC)-c1ccc(OC)c(=O)cc1[C@@H](NC(C)=O)CC2 [colchicine, reference compound]
Effect on microtubule phenotype induced by BAL27862 (A549 NSCLC cells; A549): no impact

COC(=O)Nc1nc2ccc(C(=O)c3cccs3)cc2[nH]1 [nocodazole, reference compound]
Effect on microtubule phenotype induced by BAL27862 (A549 NSCLC cells; A549): no impact

CC(=O)O[C@H]1C(=O)[C@@]2(C)[C@H]([C@H](OC(=O)c3ccccc3)[C@]3(O)C[C@H](OC(=O)[C@H](O)[C@@H](NC(=O)c4ccccc4)c4ccccc4)C(C)=C1C3(C)C)[C@]1(OC(C)=O)CO[C@@H]1C[C@@H]2O [paclitaxel, reference compound]
Response to paclitaxel (CXF 1103): resistant (BAL27862-resistant tumour cells had IC70 values >600 nanomolar)
Response to paclitaxel (MEXF 1341): resistant (BAL27862-resistant tumour cells had IC70 values >600 nanomolar)
Response to paclitaxel (CXF 243): resistant (BAL27862-resistant tumour cells had IC70 values >600 nanomolar)
Effect on microtubule phenotype induced by BAL27862 (A549 NSCLC cells; A549): no impact
Response to paclitaxel (MEXF 276): resistant (BAL27862-resistant tumour cells had IC70 values >600 nanomolar)
Response to paclitaxel (GFX 251): resistant (BAL27862-resistant tumour cells had IC70 values >600 nanomolar)
Response to paclitaxel (GFX 97): resistant (BAL27862-resistant tumour cells had IC70 values >600 nanomolar)
Response to paclitaxel (LXFE 211): resistant (BAL27862-resistant tumour cells had IC70 values >600 nanomolar)

CC[C@]1(O)C[C@@H]2CN(CCc3c([nH]c4ccccc34)[C@@](C(=O)OC)(c3cc4c(cc3OC)N(C)[C@H]3[C@@](O)(C(=O)OC)[C@H](OC(C)=O)[C@]5(CC)C=CCN6CC[C@]43[C@@H]65)C2)C1 [vinblastine, reference compound]
Response to vinblastine (CXF 1103): resistant (BAL27862-resistant tumour cells had IC70 values >600 nanomolar)
Response to vinblastine (MEXF 1341): sensitive
Response to vinblastine (CXF 243): sensitive
Effect on microtubule phenotype induced by BAL27862 (A549 NSCLC cells; A549): no impact
Response to vinblastine (MEXF 276): sensitive
Response to vinblastine (GFX 251): sensitive
Response to vinblastine (GFX 97): sensitive
Response to vinblastine (LXFE 211): sensitive
